Laboratory results as given in patent US20110251240A1, “Dosing Regimen of Flavopiridol for Treating Cancer” (OHIO STATE UNIVERSITY RESEARCH FOUNDATION, priority 2005, published 2011).
Entries after “also recorded” stand apart in the source; their conditions may differ. Where a name gives a salt, the structure may show the parent alone. Read-outs that look alike come from different tables or passages of the source.

What was measured:
Mcl-1 = assay: Example 1 cellular pharmacodynamics: immunoblot of Mcl-1 in primary CLL cells during treatment; format: in vivo, human
Excerpt: (§1) Subjects: All patients provided written informed consent. Patients had CLL or small lymphocytic lymphoma and required therapy according to the NCI criteria. […] Enrollment requirements included: age older than 17 years, symptomatic by the NCI 96 criteria, platelet count greater than 49×10^9/L, ECOG performance status of 2 or less, no active infection or inflammatory bowel disease, and not pregnant. The serum creatinine and total bilirubin levels were required to be no more than 2.0 times the normal value. Design, Treatment and Dose Modifications: This study utilized a modified phase I design, enrolling three to six patients per level until two of the first six patients experienced dose limiting toxicity. Expansion of the dose level below this occurred to a minimum of six patients to assure safety for phase II investigation. Flavopiridol was administered via a central venous catheter. The schedule of flavopiridol included receiving 50% of the dose as a 30-minute bolus infusion and the remaining 50% dose as a 4-hour infusion every week for four consecutive weeks, followed by two weeks off. The total dose administered in level 1 was 60 mg/m^2 (i.e. 30 mg/m^2 as 30 minute bolus followed by 30 mg/m^2 4-hour continuous infusion). In level 2 the dose was 80 mg/m^2 (i.e. 40 mg/m^2 bolus and 40 mg/m^2 infusion). […] Patients were evaluated for response after two, four, and six cycles of therapy. […]

[1] = Example 1 plasma pharmacokinetics (LC/MS); details: for half-life: plasma, intravenous
Excerpt: (§2) Subjects: All patients provided written informed consent. Patients had CLL or small lymphocytic lymphoma and required therapy according to the NCI criteria. […] Enrollment requirements included: age older than 17 years, symptomatic by the NCI 96 criteria, platelet count greater than 49×10^9/L, ECOG performance status of 2 or less, no active infection or inflammatory bowel disease, and not pregnant. The serum creatinine and total bilirubin levels were required to be no more than 2.0 times the normal value. Design, Treatment and Dose Modifications: This study utilized a modified phase I design, enrolling three to six patients per level until two of the first six patients experienced dose limiting toxicity. Expansion of the dose level below this occurred to a minimum of six patients to assure safety for phase II investigation. Flavopiridol was administered via a central venous catheter. The schedule of flavopiridol included receiving 50% of the dose as a 30-minute bolus infusion and the remaining 50% dose as a 4-hour infusion every week for four consecutive weeks, followed by two weeks off. The total dose administered in level 1 was 60 mg/m^2 (i.e. 30 mg/m^2 as 30 minute bolus followed by 30 mg/m^2 4-hour continuous infusion). In level 2 the dose was 80 mg/m^2 (i.e. 40 mg/m^2 bolus and 40 mg/m^2 infusion). All patients received allopurinol 300 mg/day beginning one day prior to initiation of treatment and continued during therapy. All patients received prophylactic anti-viral and Pneumocystis carinii pneumonia therapy as described previously during and for six months following completion of therapy. […] Aggressive management of hyperkalemia including kayexalate therapy, insulin and glucose therapy, and calcium therapy was employed according to an established protocol. The ability to perform bedside emergent dialysis was assured. Prophylactic rasburicase was utilized in patients with bulky lymphadenopathy or high lymphocyte counts. Following five treatments with flavopiridol, treatment was transitioned to outpatient status with two hours of hydration before and through therapy with abbreviated laboratory monitoring. Patients could discontinue therapy for stable disease without improvement after two cycles (eight treatments). Otherwise, patients continued therapy in the absence of progression or toxicity that prohibited further treatment for a maximum of six cycles (24 treatments) of flavopiridol. Patients were evaluated for response after two, four, and six cycles of therapy. Dose Limiting Toxicity: Dose limiting toxicity was defined as non-hematologic toxicity of grade 3 or greater severity (excluding transient liver function abnormalities, transient non-life-threatening electrolyte abnormalities, fatigue, or diarrhea that resolve within four days), or in some case grade 2 toxicity (i.e. irreversible renal, chronic pulmonary, neurologic, or cardiac toxicity). Hematologic toxicity was dose limiting only if grade 4 thrombocytopenia or neutropenia persisted for seven days or greater. The NCI Common Toxicity Criteria was used to grade non-hematologic toxicity and the NCI 96 CLL criteria for hematologic toxicity. See, Cheson B. D., et al. “National Cancer Institute-sponsored Working Group guidelines for chronic lymphocytic leukemia: revised guidelines for diagnosis and treatment,” Blood 1996; 87:4990-7. Assessment of Response: Criteria for response and progression utilized the Revised NCI-sponsored Working Group Guidelines as mentioned above. As specified by these guidelines, a response had to be maintained for a period of two months.

[2] = format: in vitro ADME; details: bovine
Excerpt: However, despite the promising pre-clinical results with flavopiridol in CLL and virtually all hematologic malignancies, the efficacy of flavopiridol in treating CLL in all of the clinical studies reported thus far are disappointing. […] See for example, Byrd J. C. et al., “Treatment of Relapsed Chronic Lymphocytic Leukemia by 72-hour Continuous Infusion or 1-Hour Bolus Infusion of Flavopiridol: Results from Cancer and Leukemia Group B Study 19805,” Clin. Cancer Res. 2005; 11(11) Jun. 1, 2005, 4176-4181, and references cited therein. The schedules selected in these unsuccessful trials were modeled after in vitro studies performed in fetal bovine serum-based media.
Based upon the poor clinical results in all the trials reported to date with flavopiridol, the present invention contemplated the possibility that differential protein binding could exist between these two culture media. […] Additionally, the 1-hour LC50 concentration for CLL cells in human serum was generally not obtained in the solid tumor phase I trial exploring this schedule. Thus, the prolonged continuous infusion or bolus dosing schedules previously explored in CLL and NHL may not achieve pharmacologically effective drug concentrations of flavopiridol, thereby explaining the absence of activity in the continuous infusion schedules and the marginal activity with the IV bolus schedule. […]

relapsed CLL = details: cited from earlier work; for clinical activity / response: CLL, hydrochloride
patients with CLL [3] = details: human, in vivo
Excerpt: (§3) Fifty-six patients were enrolled in this clinical trial with the median prior therapies being 4 and the majority being fludarabine-refractory. […] Cohort 1 was expanded with aggressive TLS prophylaxis. Of the 20 patients in cohort 1, 8 (40%) attained a partial response (PR) with median response duration exceeding 12 months. […] Cohort 3 and 4 did this (Table 4) with acceptable toxicity. Cohort 3 included 19 patients of whom 14 were escalated with the 5th dose. […] Ten (53%) of patients attained a partial response. […] TLS risk factors were examined for the first treatment dose in cohorts 1-3. WBC of ≧200×10^9/L were more frequently associated with TLS (5 of 8 pts) versus those with WBC<200×10^9/L (1 of 34 pts). Cohort 4 excludes pts with WBC≧200×10^9/L and currently includes 14 pts. Safety has been acceptable with only 1 case of TLS. Response assessment for cohort 4 is underway, with anti-tumor activity appearing similar to that observed in cohort 3.

RNA polymerase II = assay: Example 1 cellular pharmacodynamics: RNA polymerase II serine-5 phosphorylation in primary CLL cells during treatment; format: in vivo, human; details: eight patients examined
Excerpt: as §1

[4] = Example 2 clinical trial: plasma Cmax; format: in vivo; details: human, intravenous
Excerpt: as §3

patients with CLL [5] = assay: Example 2 clinical trial: response; format: in vivo, human
Excerpt: as §3

[6] = test system: patients with CLL or small lymphocytic lymphoma; assay: Example 1 phase I trial: toxicity; format: in vivo
Protocol: Subjects: All patients provided written informed consent. […] Flavopiridol was administered via a central venous catheter. […] The ability to perform bedside emergent dialysis was assured.
Toxicity Observed with Flavopiridol: Six patients were initially treated in dose level 1 (30 mg/m^2 bolus followed by 30 mg/m^2 4-hour infusion), with one patient having dose limiting toxicity (neutropenic fever). Dose escalation proceeded to dose level 2, with three patients being treated. […] On autopsy, extensive apoptosis/necrosis of diffuse intra-abdominal lymphadenopathy was found. No additional patients were treated at this dose, but patient one of dose level 2, who previously had not experienced TLS at the 80 mg/m^2/dose, developed this toxicity on day 1 of cycle 2 while receiving a 60 mg/m^2 dose. All treatment was put on hold and an aggressive monitoring mechanism was put into place. Fourteen additional patients were treated at the level 1 dose utilizing this protocol. While biochemical evidence of TLS was present in most patients receiving therapy, only one developed significant TLS that required temporary dialysis for medically uncontrollable hyperkalemia on day 1 of therapy. While grade 1 (n=11) or 2 (n=6) diarrhea occurred in the majority of patients treated at the level 1 dose, this was generally short-lived. Similarly, transient grade 1 (n=13) or grade 2 (n=6) fatigue was observed.

[7] = test system: patients with CLL or small lymphocytic lymphoma; assay: Example 1 phase I trial: response (NCI 96 criteria); format: in vivo, human
Excerpt: as §2

CLL cells = assay: cells; format: cell-based; details: Homo sapiens, CLL cell
Excerpt: Based upon the poor clinical results in all the trials reported to date with flavopiridol, the present invention contemplated the possibility that differential protein binding could exist between these two culture media. […] Additionally, the 1-hour LC50 concentration for CLL cells in human serum was generally not obtained in the solid tumor phase I trial exploring this schedule. Thus, the prolonged continuous infusion or bolus dosing schedules previously explored in CLL and NHL may not achieve pharmacologically effective drug concentrations of flavopiridol, thereby explaining the absence of activity in the continuous infusion schedules and the marginal activity with the IV bolus schedule. Given the novel mechanism of action of flavopiridol, as well as its ability to induce apoptosis independent of p53 dysfunction and modulate critical anti-apoptotic proteins such as Mcl-1 in vitro, and utilizing pharmacokinetic modeling a new dosing regimen in accordance with this invention was developed.

[8] = cohort 1, 30 mg/m^2 + 30 mg/m^2
[9] = cohort 3 at the escalated doses (30 mg/m^2 + 50 mg/m^2)
[10] = Cohort 1, 30 mg/m^2 + 30 mg/m^2, 20 pts
[11] = Cohort 2, 40 mg/m^2 + 40 mg/m^2, 3 pts
[12] = 23 CLL patients, 30-min bolus + 4-h infusion

Structure (SMILES): CN1CCC(c2c(O)cc(O)c3c(=O)cc(-c4ccccc4Cl)oc23)[C@H](O)C1.Cl (stereo partly drawn) [Flavopiridol, (cis-5,7-dihydroxy-2-(2-chlorophenyl)-8-[4-(3-hydroxy-1-methyl)-piperidinyl]-1-benzopyran-4-one) hydrochloride]
- patients with significant modulation of Mcl-1 (Mcl-1; of the five non-responding patients examined): None
- patients with decreased expression of Mcl-1 with treatment (Mcl-1; of three responding patients examined): two
- CL ([1]; 30 + 30 mg/m^2 (n = 20), Mean ± S.D.): 14.5 ± 6.5 L/hr/m^2
- inter-patient variability of Cmax ([1]; human, in vivo): two to three-fold
- Cmax ([1]; human, in vivo, 80 mg/m^2): 4400 nM
- half-life ([1]; human, t1/2, 30 + 30 mg/m^2 (n = 20), Mean ± S.D.): 14 ± 10.2 h
- half-life ([1]; human, terminal half-life, mean±S.D., after the end of the 4-hour CIVI): 14 ± 10.2 h
- half-life ([1]; human, terminal half-life, range, after the end of the 4-hour CIVI): 1.1 to 42.5 h
- free drug level [2]: 63-100%
- response rate (relapsed CLL; 1-hour bolus, relapsed CLL): 11%
- clinical activity / response (relapsed CLL; 24-hour infusion): No activity; also recorded: no patients with CLL responded
- clinical activity / response (relapsed CLL; 72-hour continuous infusion): No activity; also recorded: no patients with CLL responded
- cases of TLS (patients with CLL [3]): 1
- change in serine-5 phosphorylation of RNA polymerase II (RNA polymerase II): no change
- Cmax at 0.5 hr [4, 8]: 2080 nM
- Cmax at 4.5 hr [4, 8]: 960 nM
- Cmax at 0.5 hr [4, 9]: 1950 nM
- Cmax at 4.5 hr [4, 9]: 1540 nM
- Response Rate (partial response), number of patients (patients with CLL [5]; [10]): 8
- Response Rate (partial response), percentage (patients with CLL [5]; [10]): 40%
- Response Rate, number of patients (patients with CLL [5]; [11]): 1
- Response Rate, percentage (patients with CLL [5]; [11]): 33%
- Response Rate (partial response), percentage (patients with CLL [5]; Cohort 3, 30 + 30 mg/m^2 dose 1-4 then 30 + 50 mg/m^2, 19 pts): 53%
- median response duration (patients with CLL [5]; cohort 1 responders): exceeding 12 months
- tumor cytoreduction with dose escalation (patients with CLL [5]; cohort 3, 14 patients escalated with the 5th dose): Increased tumor cytoreduction was observed in a majority of patients
- toxicity in patient three at dose level 2 ([6]; 40 mg/m^2 bolus + 40 mg/m^2 infusion, day 1): TLS complicated by uncontrollable hyperkalemia and subsequent fatal asystole
- Number of patients with AST Elevation Grade 5 [6, 12]: 0
- Number of patients with Anemia Grade 5 [6, 12]: 0
- Number of patients with Arthralgias Grade 5 [6, 12]: 0
- Number of patients with Diarrhea Grade 5 [6, 12]: 0
- Number of patients with Dyspnea Grade 5 [6, 12]: 0
- Number of patients with Edema Grade 5 [6, 12]: 0
- Number of patients with Fatigue Grade 5 [6, 12]: 0
- Number of patients with Hypokalemia Grade 5 [6, 12]: 0
- Number of patients with Infection Grade 3 [6, 12]: 5
- Number of patients with Infection Grade 4 [6, 12]: 0
- Number of patients with Infection Grade 5 [6, 12]: 0
- Number of patients with Neutropenia Grade 5 [6, 12]: 0
- Number of patients with Syncope Grade 5 [6, 12]: 0
- Number of patients with Thrombocytopenia Grade 5 [6, 12]: 0
- Number of patients with Tumor Lysis Syndrome Grade 5 [6, 12]: 1
- Percentage of patients with Infection Grade 3 [6, 12]: (22%)
- Percentage of patients with Tumor Lysis Syndrome Grade 5 [6, 12]: 4%
- patients with grade 1 diarrhea ([6]; human, in vivo): 11
- patients with grade 2 diarrhea ([6]; human, in vivo): 6
- patients with transient grade 1 fatigue ([6]; human, in vivo): 13
- patients with transient grade 2 fatigue ([6]; human, in vivo): 6
- patients developing significant TLS that required temporary dialysis ([6]; in vivo): one
- duration of partial response in patient two at dose level 2 ([7]; 40 mg/m^2 bolus + 40 mg/m^2 infusion): > 13 month
- patients attaining a partial response (NCI 96 criteria), number ([7]; among the 23 patients enrolled): ten
- patients attaining a partial response (NCI 96 criteria), percentage ([7]; among the 23 patients enrolled): 43%
- responding patients relapsed ([7]; of ten responders, at eight and sixteen months): two
- responding patients remaining in continuous remission ([7]; of ten responders, at five to 14+ months): Eight
- patients experiencing a 50% or greater reduction in lymphadenopathy ([7]; of the nine patients with measurable lymphadenopathy, by day 8 of cycle 1): eight

Structure (SMILES): CN1CC[C@H](c2c(O)cc(O)c3c(=O)cc(-c4ccccc4Cl)oc23)[C@H](O)C1 [Flavopiridol, (cis-5,7-dihydroxy-2-(2-chlorophenyl)-8-[4-(3-hydroxy-1-methyl)-piperidinyl]-1-benzopyran-4-one) hydrochloride]
- CC50 (CLL cells; 1 h, read-out: 1-hour LC50 required to induce apoptosis in CLL cells, 1-hour exposure, fetal calf serum): 670 nM
- CC50 (CLL cells; 1 h, read-out: 1-hour LC50 required to induce apoptosis in CLL cells, 1-hour exposure, human serum): 3510 nM
- CC50 (CLL cells; 24 h, read-out: 24-hour LC50 required to induce apoptosis in CLL cells, 24-hour exposure, fetal calf serum): 120 nM
- CC50 (CLL cells; 24 h, read-out: 24-hour LC50 required to induce apoptosis in CLL cells, 24-hour exposure, human serum): 470 nM
